The target in this test is HIV-1 PR (Human immunodeficiency virus type 1 group M subtype B, UniProt P04585). Description: HIV-protease inhibitory activity assay (FRET peptide substrate). Particulars: Test Example 1. It is filed as biochemical. The essentials:
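Inhibition of HIV-1 protease was measured as loss of fluorescence dequenching of a HiLyte Fluor 488/QXL 520 peptide at 2 μmol/L, pH 4.8, room temperature, 60 minute reaction. IC50 was derived by nonlinear four-parameter fitting.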
In the case of `COc1ccc(S(=O)(=O)N(CC(C)C)CC(O)C(Cc2ccc(OC3CCN(Cc4ccccc4-c4sc5c(c4C(=O)O)CC(C)(C)CC5)C3)cc2)NC(=O)OC2COC3(C)OCCC23)cc1` (stereo not drawn) [Compound I-207], inhibition was half-maximal at 2.1 nM (IC50). The figure for `COc1ccc(S(=O)(=O)N(CC(C)C)CC(O)C(Cc2ccc(NC(=O)c3sc4c(c3C(=O)O)CC(C)(C)CC4)cc2)NC(=O)OC2COC3(C)OCCC23)cc1` (stereo not drawn) [Compound I-208] is 1.86 nM; for `COc1ccc(S(=O)(=O)N(CC(C)C)CC(O)C(Cc2ccc(N3CCN(c4ccc(-c5sc6c(c5C(=O)O)CC(C)(C)CC6)cc4)CC3)cc2)NC(=O)OC2COC3(C)OCCC23)cc1` (stereo not drawn) [Compound I-209] it is 3.07 nM. As for `COc1ccc(S(=O)(=O)N(CC2CCCC2)CC(O)C(Cc2ccc(OC3CCN(C(=O)c4ccc(Cl)cc4-c4sc5c(c4C(=O)O)CC(C)(C)CC5)C3)cc2)NC(=O)OC2COC3(C)OCCC23)cc1` (stereo not drawn) [Compound I-210], the figure is 2.15 nM; as for `COc1ccc(S(=O)(=O)N(CC(C)C)CC(O)C(Cc2ccc(OCc3ccccc3-c3ccc(Cn4nc(C(=O)O)c5c4CCC(C)(C)C5)cc3)cc2)NC(=O)OC2COC3(C)OCCC23)cc1` (stereo not drawn) [Compound I-213], 1.76 nM. As for `COc1ccc(S(=O)(=O)N(CC(C)C)CC(O)C(Cc2ccc(N3CCc4ccc(-c5sc6c(c5C(=O)O)CC(C)(C)CC6)cc4C3)cc2)NC(=O)OC2COC3(C)OCCC23)cc1` (stereo not drawn) [Compound I-215], the figure is 2.01 nM; as for `COc1ccc(S(=O)(=O)N(CC2CCCC2)CC(O)C(Cc2ccc(OCc3ccccc3Cn3nc4c(c3C(=O)O)CC(C)(C)CC4)cc2)NC(=O)OC2COC3(C)OCCC23)cc1` (stereo not drawn) [Compound I-216], 1.93 nM.

In the case of `COc1ccc(S(=O)(=O)N(CC(C)C)CC(O)C(Cc2ccc(-c3ccc(Cn4nc5c(c4C(=O)O)CC(C)(C)CC5)cc3)cc2)NC(=O)OC2COC3(C)OCCC23)cc1` (stereo not drawn) [Compound I-217], the midpoint of inhibition, the IC50, lay at 1.95 nM. As for `COc1ccc(S(=O)(=O)N(CC(C)C)CC(O)C(Cc2ccc(C(=O)N(C)Cc3ccccc3-c3sc4c(c3C(=O)O)CC(C)(C)CC4)cc2)NC(=O)OC2COC3(C)OCCC23)cc1` (stereo not drawn) [Compound I-219], the figure is 2.06 nM. The figure for `COc1ccc(S(=O)(=O)N(CC(C)C)CC(O)C(Cc2ccc(N(C)C(=O)Nc3sc4c(c3C(=O)O)CC(C)(C)CC4)cc2)NC(=O)OC2COC3(C)OCCC23)cc1` (stereo not drawn) [Compound I-220] is 2.08 nM. For the compound `COc1ccc(S(=O)(=O)N(CC2CCCC2)CC(O)C(Cc2ccc(OCc3ccccc3Cn3nc(C(=O)O)c4c3CCC(C)(C)C4)cc2)NC(=O)OC2COC3(C)OCCC23)cc1` (stereo not drawn) [Compound I-221], half-maximal inhibition (IC50) was put at 2.11 nM. As for `COc1ccc(S(=O)(=O)N(CC(C)C)CC(O)C(Cc2ccc(N3Cc4ccc(-c5sc6c(c5C(=O)O)CC(C)(C)CC6)cc4C3)cc2)NC(=O)OC2COC3(C)OCCC23)cc1` (stereo not drawn) [Compound I-222], the figure is 2.9 nM; as for `COc1ccc(S(=O)(=O)N(CC(C)C)CC(O)C(Cc2ccc(N3CC4CN(C(=O)c5sc6c(c5C(=O)O)CC(C)(C)CC6)CC4C3)cc2)NC(=O)OC2COC3(C)OCCC23)cc1` (stereo not drawn) [Compound I-223], 1.97 nM; as for `COc1ccc(S(=O)(=O)N(CC(C)C)CC(O)C(Cc2ccc(N3CCN(C(=O)c4sc5c(c4C(=O)O)CC(C)(C)CC5)CC3)cc2)NC(=O)OC2COC3(C)OCCC23)cc1` (stereo not drawn) [Compound I-224], 1.96 nM. As for `COc1ccc(S(=O)(=O)N(CC(C)C)CC(O)C(Cc2ccc(N3CCc4nc(-c5sc6c(c5C(=O)O)CC(C)(C)CC6)sc4C3)cc2)NC(=O)OC2COC3(C)OCCC23)cc1` (stereo not drawn) [Compound I-225], the figure is 2.31 nM. `COc1ccc(S(=O)(=O)N(CC(C)C)CC(O)C(Cc2ccc(N3CCc4c(cccc4-c4sc5c(c4C(=O)O)CC(C)(C)CC5)C3)cc2)NC(=O)OC2COC3(C)OCCC23)cc1` (stereo not drawn) [Compound I-226] registered a concentration for half-maximal inhibition (IC50) of 4.48 nM. The figure for `COc1ccc(S(=O)(=O)N(CC(C)C)CC(O)C(Cc2ccc(N3CCC(c4sc5c(c4C(=O)O)CC(C)(C)CC5)CC3)cc2)NC(=O)OC2COC3(C)OCCC23)cc1` (stereo not drawn) [Compound I-227] is 3.26 nM; for `COc1ccc(S(=O)(=O)N(CC(C)C)CC(O)C(Cc2ccc(OCc3ccccc3NC(=O)Nc3sc4c(c3C(=O)O)CC(C)(C)CC4)cc2)NC(=O)OC2COC3(C)OCCC23)cc1` (stereo not drawn) [Compound I-229] it is 3.7 nM; for `COc1ccc(S(=O)(=O)N(CC(C)C)CC(O)C(Cc2ccc(N3CCN(c4ccc(C#N)cc4-c4sc5c(c4C(=O)O)CC(C)(C)CC5)CC3)cc2)NC(=O)OC2COC3(C)OCCC23)cc1` (stereo not drawn) [Compound I-232] it is 4.1 nM. The figure for `COc1ccc(S(=O)(=O)N(CC(C)C)CC(O)C(Cc2ccc(N3CC4CN(c5ccc(C#N)cc5-c5sc6c(c5C(=O)O)CC(C)(C)CC6)CC4C3)cc2)NC(=O)OC2COC3(C)OCCC23)cc1` (stereo not drawn) [Compound I-233] is 6.22 nM. The figure for `COc1ccc(S(=O)(=O)N(CC(C)C)CC(O)C(Cc2ccc(N(C)C3CCN(c4ccccc4-c4sc5c(c4C(=O)O)CC(C)(C)CC5)C3)cc2)NC(=O)OC2COC3(C)OCCC23)cc1` (stereo not drawn) [Compound I-239] is 2.74 nM; for `COc1ccc(S(=O)(=O)N(CC(C)C)CC(O)C(Cc2ccc(OC3CCN(C(=O)Nc4ccc(Cl)cc4-c4sc5c(c4C(=O)O)CC(C)(C)CC5)C3)cc2)NC(=O)OC2COC3(C)OCCC23)cc1` (stereo not drawn) [Compound I-244] it is 2.01 nM; for `COc1ccc(S(=O)(=O)N(CC(C)C)CC(O)C(Cc2ccc(OC3CCN(C(=O)c4sc5c(c4C(=O)O)CC(C)(C)CC5)C3)cc2)NC(=O)OC2COC3(C)OCCC23)cc1` (stereo not drawn) [Compound I-245] it is 2.01 nM. `COc1ccc(S(=O)(=O)N(CC(C)C)C[C@@H](O)[C@H](Cc2ccc(NC[C@@H]3CCCC[C@@H]3c3sc4c(c3C(=O)O)CC(C)(C)CC4)cc2)NC(=O)O[C@H]2CO[C@@]3(C)OCC[C@@H]23)cc1` [Compound I-246] came in with an IC50 of 2.07 nM.

`COc1ccc(S(=O)(=O)N(CC(C)C)CC(O)C(Cc2ccc(CN(C)c3ccccc3-c3sc4c(c3C(=O)O)CC(C)(C)CC4)cc2)NC(=O)OC2COC3(C)OCCC23)cc1` (stereo not drawn) [Compound I-249] gave a half-inhibitory concentration (IC50) of 2.26 nM.

With `COc1ccc(S(=O)(=O)N(CC(C)C)CC(O)C(Cc2ccc(CN(C)Cc3ccccc3-c3sc4c(c3C(=O)O)CC(C)(C)CC4)cc2)NC(=O)OC2COC3(C)OCCC23)cc1` (stereo not drawn) [Compound I-250], the half-maximal inhibitory concentration (IC50) is 2.2 nM. Consider `COc1ccc(S(=O)(=O)N(CC(C)C)CC(O)C(Cc2ccc(OCc3ccccc3-c3ncc4c(c3C(=O)O)CC(C)(C)CC4)cc2)NC(=O)OC2COC3(C)OCCC23)cc1` (stereo not drawn) [Compound I-251], for which the IC50 worked out at 2.3 nM. The figure for `COc1ccc(S(=O)(=O)N(CC(C)C)CC(O)C(Cc2ccc(NCc3cccc(-c4sc5c(c4C(=O)O)CC(C)(C)CC5)c3)cc2)NC(=O)OC2COC3(C)OCCC23)cc1` (stereo not drawn) [Compound I-254] is 2.64 nM; for `COc1ccc(S(=O)(=O)N(CC(C)C)CC(O)C(Cc2ccc(OCCN(C)c3ccc(C#N)cc3-c3sc4c(c3C(=O)O)CC(C)(C)CC4)cc2)NC(=O)OC2COC3(C)OCCC23)cc1` (stereo not drawn) [Compound I-257] it is 4.98 nM; for `COc1ccc(S(=O)(=O)N(CC(C)C)CC(O)C(Cc2ccc(OCCNc3ccc(C#N)cc3-c3sc4c(c3C(=O)O)CC(C)(C)CC4)cc2)NC(=O)OC2COC3(C)OCCC23)cc1` (stereo not drawn) [Compound I-258] it is 5.23 nM. In turn, `COc1ccc(S(=O)(=O)N(CC(C)C)CC(O)C(Cc2ccc(OCC3CCCCC3Nc3ccc(C#N)cc3-c3sc4c(c3C(=O)O)CC(C)(C)CC4)cc2)NC(=O)OC2COC3(C)OCCC23)cc1` (stereo not drawn) [Compound I-259] showed a half-inhibitory concentration (IC50) of 10.9 nM. The figure for `COc1ccc(S(=O)(=O)N(CC(C)C)CC(O)C(Cc2ccc(C(=O)NCc3ccccc3-c3sc4c(c3C(=O)O)CC(C)(C)CC4)cc2)NC(=O)OC2COC3(C)OCCC23)cc1` (stereo not drawn) [Compound I-263] is 3.41 nM; for `COc1ccc(S(=O)(=O)N(CC(C)C)CC(O)C(Cc2ccc(CN(C)c3cccc(-c4sc5c(c4C(=O)O)CC(C)(C)CC5)c3)cc2)NC(=O)OC2COC3(C)OCCC23)cc1` (stereo not drawn) [Compound I-264] it is 3.53 nM. As for `COc1ccc(S(=O)(=O)N(CC(C)C)CC(O)C(Cc2ccc(CN(C)Cc3cccc(-c4sc5c(c4C(=O)O)CC(C)(C)CC5)c3)cc2)NC(=O)OC2COC3(C)OCCC23)cc1` (stereo not drawn) [Compound I-266], the figure is 2.61 nM; as for `COc1ccc(S(=O)(=O)N(CC(C)C)CC(O)C(Cc2ccc(N(C)C(=O)Nc3ccccc3-c3sc4c(c3C(=O)O)CC(C)(C)CC4)cc2)NC(=O)OC2COC3(C)OCCC23)cc1` (stereo not drawn) [Compound I-269], 3.41 nM; as for `COc1ccc(S(=O)(=O)N(CC(C)C)CC(O)C(Cc2ccc(NC(=O)Nc3ccccc3-c3sc4c(c3C(=O)O)CC(C)(C)CC4)cc2)NC(=O)OC2COC3(C)OCCC23)cc1` (stereo not drawn) [Compound I-270], 3.38 nM. The figure for `COc1ccc(S(=O)(=O)N(CC(C)C)CC(O)C(Cc2ccc(NCc3ccncc3-c3sc4c(c3C(=O)O)CC(C)(C)CC4)cc2)NC(=O)OC2COC3(C)OCCC23)cc1` (stereo not drawn) [Compound I-273] is 2.25 nM. On to `COc1ccc(S(=O)(=O)N(CC(C)C)CC(O)C(Cc2ccc(NCc3occc3-c3sc4c(c3C(=O)O)CC(C)(C)CC4)cc2)NC(=O)OC2COC3(C)OCCC23)cc1` (stereo not drawn) [Compound I-276], for which the half-maximal inhibitory concentration (IC50) worked out at 2.16 nM. The figure for `COc1ccc(S(=O)(=O)N(CC(C)C)CC(O)C(Cc2ccc(NCc3cnc(OC)cc3-c3sc4c(c3C(=O)O)CC(C)(C)CC4)cc2)NC(=O)OC2COC3(C)OCCC23)cc1` (stereo not drawn) [Compound I-278] is 1.83 nM; for `COc1ccc(S(=O)(=O)N(CC(C)C)CC(O)C(Cc2ccc(NCc3c(-c4sc5c(c4C(=O)O)CC(C)(C)CC5)ccc(F)c3F)cc2)NC(=O)OC2COC3(C)OCCC23)cc1` (stereo not drawn) [Compound I-279] it is 1.6 nM; for `COc1ccc(S(=O)(=O)N(CC(C)C)CC(O)C(Cc2ccc(NCc3cc(-c4sc5c(c4C(=O)O)CC(C)(C)CC5)ccc3F)cc2)NC(=O)OC2COC3(C)OCCC23)cc1` (stereo not drawn) [Compound I-280] it is 3.24 nM. The figure for `COc1ccc(S(=O)(=O)N(CC(C)C)CC(O)C(Cc2ccc(NCc3cc(-c4sc5c(c4C(=O)O)CC(C)(C)CC5)ccc3OC)cc2)NC(=O)OC2COC3(C)OCCC23)cc1` (stereo not drawn) [Compound I-281] is 2.95 nM.

Usually IC50 stands for the concentration that gives 50% inhibition. Read a high IC50 as lower potency.
